Reference: US9725460B2, “Oridonin analogs, compositions, and methods related thereto” (THE BOARD OF REGENTS OF THE UNIVERSITY OF TEXAS SYSTEM, priority 2013, dated 2017)
Converted amounts (≈) assume the structure as drawn. Where two headings read alike, the source gives them in different places.

Experiments:
MCF-7/ADR [1] = test: MTT growth inhibition, drug-resistant MCF-7/ADR; assay type: cell-based; details: Homo sapiens, NCI/ADR-RES, 24 h, Table 1d; drug-resistant breast cancer cells; mean ± SE of three experiments
MDA-MB-231 cells = test: Colony formation in MDA-MB-231 cells; assay type: cell-based
HMEC cells = test: Toxicity in HMEC cells; assay type: cell-based
[2] = Body weight and tolerability in xenograft mice; details: 5.0 mg/kg ip
From the text: (§1) FIG. 14. […] Values are mean±SE of three independent experiments.
(§2) In pilot in vivo studies, this compound was further evaluated for its anticancer activity in suppression of tumor growth in the triple-negative breast cancer MDA-MB-231 xenograft model.

AsPC1 = test: Cancer cell proliferation assay, AsPC1; assay type: cell-based; details: Homo sapiens, ASPC1
Protocol: (§3) In Vitro Determination of Effects of Synthesized Diterpenoids on Cancer Cell Proliferation. […] Then MTT solution was removed, and 150 μL of DMSO was added to each well. Absorbance of all wells was determined by measuring OD at 550 nm after a 10 min incubation on a 96-well GlowMaxate absorbance reader (Promega, Madison, Wis.). Each individual compound was tested in quadruplicate wells for each concentration.

MDA-MB-231 = test: MTT cancer cell proliferation assay, MDA-MB-231; assay type: cell-based, human; details: Homo sapiens
Method in brief: (§4)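 Cells seeded at 1×10^4/well and exposed 48 h to 0.01-100 μM compound (0.01, 0.1, 1, 5, 10, 100 μM) or DMSO. MTT added for a further 4 h, formazan dissolved in DMSO and OD read at 550 nm; quadruplicate wells per concentration. MCF-7 is ER-positive; MDA-MB-231 ER-negative, triple-negative.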

[3] = tested on: breast, pancreatic, and prostate cancer cell lines; test: Anti-proliferation effects against cancer cell lines; assay type: cell-based, human; details: summary of Tables 1 and 2
Protocol: (§5) In Vitro Determination of Effects of Synthesized Diterpenoids on Cancer Cell Proliferation. Breast cancer cell lines MCF-7, MDA-MB-231, […] and MCF/ADR were seeded in 96-well plates at a density of 1×10^4 cells/well and treated with DMSO and 0.01, 0.1, 1, 5, 10, and 100 μM of individual compound for 48 h, and then 20 μL of 3-(4,5-dimethylthiazol-2-yl)-2,5-diphenyltetrazolium bromide (MTT) (5 mg/mL in PBS) was added to each well and further incubated for another 4 h. Then MTT solution was removed, and 150 μL of DMSO was added to each well. Absorbance of all wells was determined by measuring OD at 550 nm after a 10 min incubation on a 96-well GlowMaxate absorbance reader (Promega, Madison, Wis.). Each individual compound was tested in quadruplicate wells for each concentration.

MCF-7 = test: MTT cancer cell proliferation assay, MCF-7; assay type: cell-based, human; details: Homo sapiens
Method in brief: as §4

Panc-1 = test: Cancer cell proliferation assay, Panc-1; assay type: cell-based; details: Homo sapiens, PANC-1
Protocol: as §3

[4] = tested on: xenograft tumors (breast cancer MDA-MB-231); test: MDA-MB-231 xenograft tumor growth in mice; assay type: in vivo; details: 5.0 mg/kg ip; triple-negative MDA-MB-231 xenograft; p<0.0001
From the text: as §1, §2

DU145 = test: Cancer cell proliferation assay, DU145; assay type: cell-based; details: Homo sapiens, DU-145
MCF-7/ADR [5] = test: MTT growth inhibition, drug-resistant MCF-7/ADR; assay type: cell-based, human; details: Homo sapiens, NCI/ADR-RES, 48 h, Table 3; adriamycin-resistant; MTT 48 h; mean ± SE of three experiments
Protocol: as §5
(§6) The growth inhibitory effects of the newly generated pyran-fused diterpenoids were evaluated in four breast cancer cell lines MCF-7 (ER-positive), MDAMB-231 (ER-negative and triple-negative), MDA-MB-468 (ER-negative and triple-negative) as well as MCF-7/ADR (adriamycin-resistant) using MTT assays as described in the Experimental Section. The capability of these new molecules to inhibit the growth of cancer cells was summarized in Table 3 and compared with that of adriamycin and 1 spontaneously.

MDA-MB-468 = test: MTT cancer cell proliferation assay, MDA-MB-468; assay type: cell-based, human; details: Homo sapiens, MDA-MB-468, 48 h, Table 3; pyran-fused diterpenoids; MTT 48 h; mean ± SE of three experiments
Protocol: as §5, §6

Aqueous solubility = assay type: physicochemical; details: water; compound as such; read-out: Aqueous solubility
leukemia = details: 15 mg/kg; Zhou et al., Blood 2007; cited from earlier work
[6] = tested on: acute myeloid leukemic cells; details: Zhou et al., Blood 2007; read-out: IC50, induction of mitochondrial apoptosis; cited from earlier work
[7] = Table 2a, A-ring modified analogues, read-out: IC50 (μM) AsPC1
[8] = MDA-MB-231, Table 1c, dienone analogues, mean ± SE of three experiments, read-out: Antiproliferative effect MDA-MB-231 (IC50)
[9] = MDA-MB-231, Table 2a, A-ring modified analogues, read-out: IC50 (μM) MDA-MB-231
[10] = MCF7, Table 1c, dienone analogues, mean ± SE of three experiments, read-out: Antiproliferative effect MCF-7 (IC50)
[11] = MCF7, Table 2a, A-ring modified analogues, read-out: IC50 (μM) MCF-7
[12] = Table 2a, A-ring modified analogues, read-out: IC50 (μM) Panc-1
[13] = Table 1a, pancreatic cancer, read-out: IC50 (μM) AsPC1
[14] = Table 2b, mean of at least three experiments, read-out: Effect on proliferation AsPC1 (IC50)
[15] = Table 1a, prostate cancer, read-out: IC50 (μM) DU145
[16] = Table 2b, mean of at least three experiments, read-out: Effect on proliferation DU145 (IC50)
[17] = MDA-MB-231, Table 1a, breast cancer, read-out: IC50 (μM) MDA-MB-231
[18] = MDA-MB-231, Table 2b, mean of at least three experiments, read-out: Effect on proliferation MDA-MB-231 (ER negative) (IC50)
[19] = MCF7, Table 1a, breast cancer, read-out: IC50 (μM) MCF-7
[20] = MCF7, Table 2b, mean of at least three experiments, read-out: Effect on proliferation MCF-7 (ER positive) (IC50)
[21] = Table 1a, pancreatic cancer, read-out: IC50 (μM) Panc-1
[22] = Table 2b, mean of at least three experiments, read-out: Effect on proliferation Panc-1 (IC50)

Compound | IC50 (MCF-7/ADR [1]) | IC50 (AsPC1; [7]) | IC50 (MDA-MB-231; [8]) | IC50 (MDA-MB-231; [9]) | IC50 (MCF-7; [10]) | IC50 (MCF-7; [11]) | IC50 (Panc-1; [12]) | Loss of body weight [2] | Tolerability during the experiments [2] | IC50 values, anti-proliferation effects against cancer cell lines [3] | Inhibition of xenograft tumor growth compared to oridonin at the same dose [4] | IC50 (AsPC1; [13]) | IC50 (AsPC1; [14]) | IC50 (DU145; [15]) | IC50 (DU145; [16]) | IC50 (MDA-MB-231; [17]) | IC50 (MDA-MB-231; [18]) | IC50 (MCF-7; [19]) | IC50 (MCF-7; [20]) | IC50 (Panc-1; [21]) | further results
C=C1C(=O)[C@@]23[C@@H]4OC(C)(C)OC25OC[C@]2(C=CC(=O)C(C)(C)[C@H]2[C@@H]5O)[C@@H]3CC[C@@H]14 [CYD-6-86, (3S,3aR,3a^1R,6aR,7S,7aS,11aR,11bS)-7-hydroxy-5,5,8,8-tetramethyl-15-methylene-3,3a,7,7a,8,11b-hexahydro-1H-6a,11a-(epoxymethano)-3,3a^1-ethanophenanthro[1,10-de][1,3]dioxine-9,14(2H)-dione] | 6.02 ± 1.28 µM | 0.81 µM | 5.6 ± 1.06 µM | 4.39 µM | 0.98 ± 0.19 µM | 0.86 µM | 6.49 µM | no significant loss of body weight | well tolerated | low micromolar to nanomolar | much more efficacious in suppressing xenograft tumor growth | – | – | – | – | – | – | – | – | – | Antiproliferative and colony formation inhibitory effects in MDA-MB-231 cells (MDA-MB-231 cells): potent antiproliferative and colony formation inhibitory effects; Toxicity in HMEC cells (HMEC cells): lower toxicity
C=C1C(=O)[C@@]23[C@@H]4OC(C)(C)OC25OC[C@]2(C(=O)C=CC(C)(C)[C@H]2[C@@H]5O)[C@@H]3CC[C@@H]14 [CYD-6-25, (3S,3aR,3a^1R,6aR,7S,7aR,11aS,11bS)-7-hydroxy-5,5,8,8-tetramethyl-15-methylene-3,3a,7,7a,8,11b-hexahydro-1H-6a,11a-(epoxymethano)-3,3a^1-ethanophenanthro[1,10-de][1,3]dioxine-11,14(2H)-dione] | 5.03 ± 1.91 µM | 8.82 µM | 3.49 ± 1.21 µM | 5.6 µM | 0.56 ± 0.31 µM | 1.1 µM | 7.93 µM | – | – | – | – | – | – | – | – | – | – | – | – | – | –
C=CCNc1nc2c(s1)CC(C)(C)[C@H]1[C@H](O)[C@@]3(O)OC[C@@]21[C@@H]1CC[C@H]2C(=C)C(=O)[C@]13[C@@H]2O [CYD-6-18, (5aR,6S,7S,7aR,10S,12aS,12bR,15R)-2-(allylamino)-6,7,15-trihydroxy-5,5-dimethyl-9-methylene-5,5a,6,7,10,11,12,12a-octahydro-4H-7,12b-(epoxymethano)-7a,10-methanocyclohepta[7,8]naphtho[1,2-d]thiazol-8(9H)-one] | – | – | – | – | – | – | – | no significant loss of body weight | tolerated | low micromolar to nanomolar | much better effect in inhibiting tumor growth | 1.05 µM | 1.1 µM | 1.18 µM | 1.2 µM | 0.18 µM | 0.2 µM | 0.18 µM | 0.2 µM | 1.1 µM | IC50 (Panc-1; [22]): 1.1 µM

Continued, in another order:

IC50 (MCF-7/ADR [1]) | IC50 (AsPC1; [7]) | IC50 (MDA-MB-231; [8]) | IC50 (MDA-MB-231; [9]) | IC50 (MCF-7; [10]) | IC50 (MCF-7; [11]) | IC50 (Panc-1; [12]) | Compound | Loss of body weight [2] | Tolerability during the experiments [2] | IC50 values, anti-proliferation effects against cancer cell lines [3] | Inhibition of xenograft tumor growth compared to oridonin at the same dose [4] | IC50 (AsPC1; [13]) | IC50 (AsPC1; [14]) | IC50 (DU145; [15]) | IC50 (DU145; [16]) | IC50 (MDA-MB-231; [17]) | IC50 (MDA-MB-231; [18]) | IC50 (MCF-7; [19]) | IC50 (MCF-7; [20]) | IC50 (Panc-1; [21]) | further results
5.82 ± 2.12 µM | 2.99 µM | 2.23 ± 0.68 µM | 3.56 µM | 1.31 ± 0.25 µM | 0.95 µM | > 10 µM | C=C1C(=O)[C@]23[C@H](O)[C@H]1CC[C@H]2[C@@]12CO[C@]3(O)[C@@H](O)[C@@H]1C(C)(C)C=CC2=O [CYD-6-58, (4aR,5S,6S,6aR,9S,11aS,11bS,14R)-5,6,14-trihydroxy-4,4-dimethyl-8-methylene-4,4a,5,6,9,10,11,11a-octahydro-1H-6,11b-(epoxymethano)-6a,9-methanocyclohepta[a]naphthalene-1,7(8H)-dione] | – | – | – | – | – | – | – | – | – | – | – | – | – | –
6.55 ± 0.96 µM | 3.57 µM | 3.46 ± 1.33 µM | 6.09 µM | 1.28 ± 0.47 µM | 1.46 µM | 5.35 µM | C=C1C(=O)[C@@]23[C@@H]4OC(C)(C)OC25OC[C@]2(C(=O)C(C=O)=CC(C)(C)[C@H]2[C@@H]5O)[C@@H]3CC[C@@H]14 [CYD-6-92, (3S,3aR,3a^1R,6aR,7S,7aR,11aS,11bS)-7-hydroxy-5,5,8,8-tetramethyl-15-methylene-11,14-dioxo-2,3,3a,7,7a,8,11,11b-octahydro-1H-6a,11a-(epoxymethano)-3,3a^1-ethanophenanthro[1,10-de][1,3]dioxine-10-carbaldehyde] | – | – | low micromolar to nanomolar | – | – | – | – | – | – | – | – | – | – | –
> 30 µM | – | 28 ± 1.4 µM | 29.4 µM | 4.36 ± 1.41 µM | 6.64 µM | – | C=C1C(=O)[C@]23[C@H](O)[C@H]1CC[C@H]2[C@@]12COC3(O)[C@@H](O)[C@@H]1C(C)(C)CC[C@@H]2O [Oridonin] | – | – | – | – | 34.5 µM | 19.3 µM | 14.2 µM | 14.2 µM | 29.4 µM | 29.4 µM | 6.64 µM | 6.6 µM | 13.4 µM | IC50 (MCF-7/ADR [5]): 34.8 ± 2.54 µM; IC50 (MDA-MB-468): 5.33 ± 1.36 µM; IC50 (MDA-MB-231; MDA-MB-231, 48 h, Table 3, pyran-fused diterpenoids, MTT 48 h, mean ± SE of three experiments, read-out: IC50 (μM) MDA-MB-231): 28 ± 1.4 µM; IC50 (MDA-MB-231; MDA-MB-231, Table 1b, triazole substituted analogues, mean of three experiments, read-out: IC50 (μM) MDA-MB-231): 29.4 µM; solubility (Aqueous solubility): 1290 µg/mL (≈ 3.54 mM); IC50 (MCF-7; MCF7, 48 h, Table 3, pyran-fused diterpenoids, MTT 48 h, mean ± SE of three experiments, read-out: IC50 (μM) MCF-7): 4.36 ± 1.41 µM; IC50 (MCF-7; MCF7, Table 1b, triazole substituted analogues, mean of three experiments, read-out: IC50 (μM) MCF-7): 6.6 µM; Anti-leukemia activities in murine models (leukemia): substantial anti-leukemia activities with a low side-effect; IC50 (Panc-1; [22]): 15.6 µM; IC50 [6]: 2 µM
